PMC7914897, “Cytotoxic Potential of a-Azepano- and 3-Amino-3,4-SeCo-Triterpenoids” (International Journal of Molecular Sciences, 2021)
Like-named read-outs stand apart in the source and are kept apart here.

Columns and labels:
[1] = system: NIH 3T3 (non-malignant mouse fibroblasts); assay: SRB cytotoxicity assay, 72 h; type: cell-based; conditions: Mus musculus, NIH3T3; NIH 3T3, 72 h, cut-off 30 µM; read-out: EC50
Procedure, shortened: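 Exponentially growing cells were seeded to avoid confluence, then exposed after 24 h to serial compound dilutions (0–30 µM; DMSO ≤0.5%) for 72 h. Cells were fixed with 10% TCA at 4 °C, stained with 0.4% SRB, and bound dye dissolved in 10 mM Tris base was read at 570 nm. EC50 came from survival relative to untreated controls.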

[2] = system: LOX IMVI (Melanoma); assay: NCI-60 screen (SRB, 48 h); type: cell-based; conditions: Homo sapiens
[3] = system: OVCAR-4 (Ovarian cancer); assay: NCI-60 screen (SRB, 48 h); type: cell-based; conditions: Homo sapiens
[4] = system: Leukemia subpanel; assay: cells; conditions: Homo sapiens
[5] = system: OVCAR-3 (Ovarian cancer); assay: cells; conditions: Homo sapiens
[6] = system: MDA-MB-468 (Breast cancer); assay: cells; conditions: Homo sapiens
[7] = system: Colon Cancer subpanel; assay: NCI-60 screen, subpanel; conditions: Homo sapiens
[8] = system: CNS cancer subpanel; assay: NCI-60 screen, subpanel; conditions: Homo sapiens
[9] = system: Melanoma subpanel; assay: NCI-60 screen, subpanel; conditions: Homo sapiens
[10] = system: Breast cancer subpanel; assay: NCI-60 screen, subpanel; conditions: Homo sapiens
[11] = system: MOLT-4 (Leukemia); assay: NCI-60 screen (SRB, 48 h); conditions: Homo sapiens
[12] = system: NCI-H226 (NSC lung cancer); assay: NCI-60 screen (SRB, 48 h)
[13] = system: NCI-H322M (NSC lung cancer); assay: NCI-60 screen (SRB, 48 h); conditions: Homo sapiens
[14] = system: NCI-H460 (NSC lung cancer); assay: NCI-60 screen (SRB, 48 h)
[15] = system: NCI-H522 (NSC lung cancer); assay: NCI-60 screen (SRB, 48 h); conditions: Homo sapiens
[16] = system: HCC-2998 (Colon cancer); assay: NCI-60 screen (SRB, 48 h); conditions: Homo sapiens
[17] = system: KM12 (Colon cancer); assay: NCI-60 screen (SRB, 48 h); conditions: Homo sapiens
[18] = system: SNB-75 (CNS cancer); assay: NCI-60 screen (SRB, 48 h); conditions: Homo sapiens
[19] = system: UACC-257 (Melanoma); assay: NCI-60 screen (SRB, 48 h); conditions: Homo sapiens
[20] = system: 786-0 (Renal cancer); assay: NCI-60 screen (SRB, 48 h); conditions: Homo sapiens
[21] = system: A498 (Renal cancer); assay: NCI-60 screen (SRB, 48 h); conditions: Homo sapiens
[22] = system: MDA-MB-31/ATCC (Breast cancer); assay: NCI-60 screen (SRB, 48 h); conditions: Homo sapiens
[23] = system: panel of approximately 60 cancer cell lines; assay: NCI-60 screen (SRB, 48 h), full panel

C[C@H]1[C@H](C)CC[C@]2(CO)CC[C@]3(C)C(=CC[C@@H]4[C@@]5(C)CCCNC(C)(C)[C@@H]5CC[C@]43C)[C@H]12 [Compound 4, azepanouvaol]
EC50 [1]: 2.77 ± 0.4 µM | GI50 [2]: 1.59 µM | IC (TGI) ([2]; 48 h): 3.05 µM | activity at 10 µM ([2]; 48 h, 1 dose 10 µM, read-out: Growth % of the Most Sensitive Cell Lines): -94.9% | CC50 ([2]; read-out: LC50 (the source's name)): 5.84 µM | IC (TGI) ([3]; OVCAR-4, 48 h): 3.79 µM | GI50 ([3]; OVCAR-4, read-out: GI50): 1.72 µM | IC (TGI) ([4]; 48 h, read-out: TGI MG_MID): 3.28 µM | GI50 ([4]; read-out: GI50 MG_MID): 1.32 µM | CC50 ([4]; read-out: LC50 MG_MID): 8.02 µM | GI50 ([5]; OVCAR-3): 1.83 µM | IC (TGI) ([5]; OVCAR-3, 48 h, read-out: TGI): 3.42 µM | CC50 ([5]; OVCAR-3, read-out: LC50): 6.39 µM | GI50 ([6]; MDA-MB-468): 1.7 µM | IC (TGI) ([6]; MDA-MB-468, 48 h, read-out: TGI): 3.44 µM | CC50 ([6]; MDA-MB-468, read-out: LC50): 6.98 µM | IC (TGI) ([7]; 48 h, read-out: TGI MG_MID): 3.07 µM | GI50 ([7]; read-out: GI50 MG_MID): 1.52 µM | CC50 ([7]; read-out: LC50 MG_MID): 6.16 µM | IC (TGI) ([8]; 48 h, read-out: TGI MG_MID): 3.2 µM | GI50 ([8]; read-out: GI50 MG_MID): 1.69 µM | CC50 ([8]; read-out: LC50 MG_MID): 6.06 µM | IC (TGI) ([9]; 48 h, read-out: TGI MG_MID): 3.32 µM | GI50 ([9]; read-out: GI50 MG_MID): 1.74 µM | CC50 ([9]; read-out: LC50 MG_MID): 6.36 µM | IC (TGI) ([10]; 48 h, read-out: TGI MG_MID): 3.69 µM | GI50 ([10]; read-out: GI50 MG_MID): 1.74 µM | CC50 ([10]; read-out: LC50 MG_MID): 12.6 µM | GI50 ([11]; MOLT-4): 1.37 µM | IC (TGI) ([11]; MOLT-4, 48 h, read-out: TGI): 3.15 µM | CC50 ([11]; MOLT-4, read-out: LC50): 7.25 µM | GI50 ([12]; Homo sapiens, NCI-H226): 2.07 µM | IC (TGI) ([12]; Homo sapiens, NCI-H226, 48 h, read-out: TGI): 4.25 µM | Growth % of the Most Sensitive Cell Lines ([12]; NCI-H226, 1 dose 10 µM): −99.04% | GI50 [13]: 1.73 µM | IC (TGI) ([13]; 48 h, read-out: TGI): 3.19 µM | CC50 ([13]; read-out: LC50): 5.89 µM | GI50 ([14]; Homo sapiens, NCI-H460): 1.78 µM | IC (TGI) ([14]; Homo sapiens, NCI-H460, 48 h, read-out: TGI): 3.35 µM | CC50 ([14]; Homo sapiens, NCI-H460, read-out: LC50): 6.3 µM | Growth % of the Most Sensitive Cell Lines ([14]; NCI-H460, 1 dose 10 µM): −83.30% | GI50 ([15]; NCI-H522): 1.71 µM | IC (TGI) ([15]; NCI-H522, 48 h, read-out: TGI): 3.32 µM | CC50 ([15]; NCI-H522, read-out: LC50): 6.43 µM | GI50 ([16]; HCC 2998): 1.75 µM | IC (TGI) ([16]; HCC 2998, 48 h, read-out: TGI): 3.46 µM | CC50 ([16]; HCC 2998, read-out: LC50): 6.85 µM | GI50 ([17]; KM12): 1.84 µM | IC (TGI) ([17]; KM12, 48 h, read-out: TGI): 3.51 µM | CC50 ([17]; KM12, read-out: LC50): 6.68 µM | GI50 ([18]; SNB-75): 1.49 µM | IC (TGI) ([18]; SNB-75, 48 h, read-out: TGI): 2.9 µM | CC50 ([18]; SNB-75, read-out: LC50): 5.63 µM | GI50 ([19]; UACC-257): 1.95 µM | IC (TGI) ([19]; UACC-257, 48 h, read-out: TGI): 3.7 µM | CC50 ([19]; UACC-257, read-out: LC50): 7.01 µM | GI50 ([20]; 786-0): 1.6 µM | IC (TGI) ([20]; 786-0, 48 h, read-out: TGI): 3.06 µM | CC50 ([20]; 786-0, read-out: LC50): 5.85 µM | GI50 ([21]; A498): 1.63 µM | IC (TGI) ([21]; A498, 48 h, read-out: TGI): 3.29 µM | CC50 ([21]; A498, read-out: LC50): 6.63 µM | GI50 [22]: 1.88 µM | IC (TGI) ([22]; 48 h, read-out: TGI): 3.48 µM | CC50 ([22]; read-out: LC50): 6.43 µM | Positive Cytostatic Effect (cell lines with percent growth 0 to 50 / total) ([23]; 1 dose 10 µM): 18/59 | Positive Cytotoxic Effect (cell lines with percent growth < 0 / total) ([23]; 1 dose 10 µM): 40/59 | number of cancer cell lines the compound was active against ([23]; 1 dose 10 µM): 57 cell lines | activity at 10 µM ([23]; Homo sapiens, 48 h, read-out: Mean Growth, %): -31.9% | activity at 10 µM ([23]; Homo sapiens, 48 h, read-out: Range of Growth, %): -99 to 23% | IC (TGI) ([23]; Homo sapiens, 48 h, read-out: TGI MG_MID60, average over all cell lines): 3.31 µM | GI50 ([23]; Homo sapiens, read-out: GI50 MG_MID60): 1.65 µM | GI50 ([23]; Homo sapiens, read-out: GI50 against all human tumor cell lines): < 3 µM | GI50 ([23]; Homo sapiens, read-out: GI50 against the most sensitive cell lines): 0.2 to 0.94 µM | CC50 ([23]; Homo sapiens, read-out: LC50 MG_MID60, average over all cell lines): 7.64 µM
